Test results reported in US9302999B2, “Substituted triazoles as herbicides” (E. I. DU PONT DE NEMOURS AND COMPANY, priority 2012, dated 2016).

Legend:
Assay type in all cases: in vivo
[1] = tested on: canarygrass (Phalaris minor); experiment: Test C postemergence: canarygrass
Procedure, shortened: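 Pot-grown plants in peat/vermiculite medium sprayed postemergence at 2–18 cm height (1- to 4-leaf stage). Kept in greenhouse 13 to 15 days, then visually rated against untreated controls on a 0–100 scale (0 = no effect, 100 = complete control).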

[2] = tested on: windgrass (Apera spica-venti); experiment: Test D pre-/postemergence: windgrass
Procedure, shortened: (§1)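 Visual 0–100 rating versus untreated controls (0 no effect, 100 complete control), taken 14 to 21 days after treatment in a controlled growth environment. Preemergence: silt loam soil. Postemergence: peat moss/vermiculite medium, plants 2 to 18 cm, 1- to 4-leaf stage. Solvent mixture with surfactant.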

[3] = tested on: surinam grass (Brachiaria decumbens); experiment: Test C pre-/postemergence: surinam grass
Procedure, shortened: (§2)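 Preemergence on seeds in loam/sand, postemergence on 2–18 cm (1–4-leaf) plants in peat-based medium; compounds in non-phytotoxic solvent with surfactant. After 13–15 days in greenhouse, visual rating versus controls, 0 (no effect) to 100 (complete control).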

[4] = tested on: wheat, spring (spring wheat, Triticum aestivum); experiment: Test D pre-/postemergence: wheat, spring
Procedure, shortened: as §1

[5] = tested on: lambsquarters (Chenopodium album); experiment: Test C pre-/postemergence: lambsquarters
Procedure, shortened: as §2

[6] = tested on: chamomile (scentless chamomile, Matricaria inodora); experiment: Test D pre-/postemergence: chamomile
Procedure, shortened: as §1

wild oat (Avena fatua) = experiment: Test C pre-/postemergence: wild oat
Procedure, shortened: as §2

[7] = tested on: oat, wild (wild oat, Avena fatua); experiment: Test D pre-/postemergence: oat, wild
Procedure, shortened: as §1

[8] = 31 g ai/ha, scale 0 to 100 (0 no effect, 100 complete control)
[9] = 62 g ai/ha, scale 0 to 100 (0 no effect, 100 complete control)
[10] = 125 g ai/ha, scale 0 to 100, 0 no effect, 100 complete control
[11] = Postemergence, 62 g ai/ha, scale 0 to 100 (0 no effect, 100 complete control)
[12] = Postemergence, 125 g ai/ha, scale 0 to 100, 0 no effect, 100 complete control
[13] = Postemergence, 8 g ai/ha, scale 0 to 100
[14] = Postemergence, 16 g ai/ha, scale 0 to 100
[15] = Postemergence, 31 g ai/ha, scale 0 to 100
[16] = Postemergence, 31 g ai/ha, scale 0 to 100 (0 no effect, 100 complete control)
[17] = Postemergence, 250 g ai/ha, scale 0 to 100
[18] = Preemergence, 31 g ai/ha, scale of 0 to 100, 0 is no effect, 100 is complete control
[19] = Preemergence, 62 g ai/ha, scale of 0 to 100, 0 is no effect, 100 is complete control
[20] = Preemergence, 125 g ai/ha, scale 0 to 100, 0 no effect, 100 complete control
[21] = Preemergence, 250 g ai/ha, scale 0 to 100, 0 no effect, 100 complete control
[22] = Postemergence, 250 g ai/ha, scale 0 to 100 (0 no effect, 100 complete control)
[23] = Preemergence, 16 g ai/ha, scale 0 to 100 (0 no effect, 100 complete control)
[24] = Preemergence, 31 g ai/ha, scale 0 to 100 (0 no effect, 100 complete control)
[25] = Preemergence, 62 g ai/ha, scale 0 to 100
[26] = Preemergence, 125 g ai/ha, scale 0 to 100
[27] = Preemergence, 250 g ai/ha, scale 0 to 100
[28] = Preemergence, 31 g ai/ha, scale 0 (no effect) to 100 (complete control)

Cc1nn(-c2ccc(F)c(F)c2)nc1Oc1ccnc(C(F)(F)F)c1 [Compound 145]
Plant response rating, Canarygrass [1, 8]: 15 | Plant response rating, Canarygrass [1, 9]: 40 | Plant response rating, Canarygrass [1, 10]: 50 | Plant response rating, Canarygrass ([1]; 250 g ai/ha, scale 0 to 100): 90 | Plant response rating: Windgrass [2, 11]: 60 | Plant response rating: Windgrass [2, 12]: 80 | Plant response rating, Windgrass [2, 13]: 5 | Plant response rating, Windgrass [2, 14]: 10 | Plant response rating, Windgrass [2, 15]: 35 | Plant response rating, Surinam Grass [3, 16]: 25 | Plant response rating, Surinam Grass [3, 11]: 30 | Plant response rating, Surinam Grass [3, 12]: 60 | Plant response rating, Surinam Grass [3, 17]: 75 | Plant response rating, Surinam Grass [3, 18]: 35 | Plant response rating, Surinam Grass [3, 19]: 55 | Plant response rating, Surinam Grass [3, 20]: 100 | Plant response rating, Surinam Grass [3, 21]: 100 | Plant response rating: Wheat, Spring [4, 16]: 10 | Plant response rating: Wheat, Spring [4, 11]: 20 | Plant response rating: Wheat, Spring [4, 12]: 25 | Plant response rating, Wheat, Spring [4, 13]: 5 | Plant response rating, Wheat, Spring [4, 14]: 5 | Plant response rating, Lambsquarters [5, 16]: 95 | Plant response rating, Lambsquarters [5, 11]: 95 | Plant response rating, Lambsquarters [5, 12]: 95 | Plant response rating, Lambsquarters [5, 17]: 95 | Plant response rating, Lambsquarters [5, 18]: 55 | Plant response rating, Lambsquarters [5, 19]: 85 | Plant response rating, Lambsquarters [5, 20]: 95 | Plant response rating, Lambsquarters [5, 21]: 98 | Plant response rating: Chamomile [6, 16]: 10 | Plant response rating: Chamomile [6, 11]: 10 | Plant response rating: Chamomile [6, 12]: 30 | Plant response rating, Chamomile [6, 13]: 0 | Plant response rating, Chamomile [6, 14]: 0 | Plant response rating, Oat, Wild (wild oat (Avena fatua); [16]): 20 | Plant response rating, Oat, Wild (wild oat (Avena fatua); [11]): 40 | Plant response rating, Oat, Wild (wild oat (Avena fatua); [12]): 60 | Plant response rating, Oat, Wild (wild oat (Avena fatua); [17]): 80 | Plant response rating, Oat, Wild (wild oat (Avena fatua); [18]): 45 | Plant response rating, Oat, Wild (wild oat (Avena fatua); [19]): 70 | Plant response rating, Oat, Wild (wild oat (Avena fatua); [20]): 90 | Plant response rating, Oat, Wild (wild oat (Avena fatua); [21]): 90 | Plant response rating: Oat, Wild [7, 16]: 20 | Plant response rating: Oat, Wild [7, 11]: 30 | Plant response rating: Oat, Wild [7, 12]: 35 | Plant response rating, Oat, Wild [7, 13]: 10 | Plant response rating, Oat, Wild [7, 14]: 10

CCOc1nn(-c2ccc(F)cc2)nc1Cc1ccnc(C(F)F)c1 [Compound 195]
Plant response rating, Canarygrass [1, 8]: 40 | Plant response rating, Canarygrass [1, 9]: 60 | Plant response rating, Canarygrass [1, 10]: 85 | Plant response rating, Canarygrass ([1]; 250 g ai/ha, scale 0 to 100): 100 | Plant response rating: Windgrass [2, 11]: 30 | Plant response rating: Windgrass [2, 12]: 70 | Plant response rating: Windgrass [2, 22]: 80 | Plant response rating, Windgrass [2, 14]: 10 | Plant response rating, Windgrass [2, 15]: 15 | Plant response rating, Windgrass [2, 23]: 25 | Plant response rating, Windgrass [2, 24]: 40 | Plant response rating, Windgrass [2, 25]: 75 | Plant response rating, Windgrass [2, 26]: 100 | Plant response rating, Windgrass [2, 27]: 100 | Plant response rating, Surinam Grass [3, 16]: 30 | Plant response rating, Surinam Grass [3, 11]: 50 | Plant response rating, Surinam Grass [3, 22]: 60 | Plant response rating, Surinam Grass [3, 28]: 55 | Plant response rating, Surinam Grass [3, 19]: 75 | Plant response rating, Surinam Grass [3, 20]: 85 | Plant response rating, Surinam Grass [3, 21]: 98 | Plant response rating: Wheat, Spring [4, 16]: 10 | Plant response rating: Wheat, Spring [4, 11]: 20 | Plant response rating: Wheat, Spring [4, 12]: 25 | Plant response rating: Wheat, Spring [4, 22]: 35 | Plant response rating, Wheat, Spring [4, 14]: 5 | Plant response rating, Wheat, Spring [4, 23]: 0 | Plant response rating, Wheat, Spring [4, 24]: 0 | Plant response rating, Wheat, Spring [4, 25]: 0 | Plant response rating, Wheat, Spring [4, 26]: 0 | Plant response rating, Wheat, Spring [4, 27]: 0 | Plant response rating, Lambsquarters [5, 16]: 95 | Plant response rating, Lambsquarters [5, 11]: 95 | Plant response rating, Lambsquarters [5, 12]: 95 | Plant response rating, Lambsquarters [5, 22]: 95 | Plant response rating, Lambsquarters [5, 28]: 55 | Plant response rating, Lambsquarters [5, 19]: 80 | Plant response rating, Lambsquarters [5, 20]: 90 | Plant response rating, Lambsquarters [5, 21]: 95 | Plant response rating: Chamomile [6, 16]: 20 | Plant response rating: Chamomile [6, 11]: 20 | Plant response rating: Chamomile [6, 12]: 20 | Plant response rating: Chamomile [6, 22]: 50 | Plant response rating, Chamomile [6, 14]: 20 | Plant response rating, Chamomile [6, 23]: 0 | Plant response rating, Chamomile [6, 24]: 0 | Plant response rating, Chamomile [6, 25]: 100 | Plant response rating, Chamomile [6, 26]: 100 | Plant response rating, Chamomile [6, 27]: 100 | Plant response rating, Oat, Wild (wild oat (Avena fatua); [16]): 60 | Plant response rating, Oat, Wild (wild oat (Avena fatua); [11]): 75 | Plant response rating, Oat, Wild (wild oat (Avena fatua); [12]): 80 | Plant response rating, Oat, Wild (wild oat (Avena fatua); [22]): 85 | Plant response rating, Oat, Wild (wild oat (Avena fatua); [28]): 80 | Plant response rating, Oat, Wild (wild oat (Avena fatua); [19]): 90 | Plant response rating, Oat, Wild (wild oat (Avena fatua); [21]): 90 | Plant response rating: Oat, Wild [7, 16]: 20 | Plant response rating: Oat, Wild [7, 11]: 25 | Plant response rating: Oat, Wild [7, 12]: 35 | Plant response rating: Oat, Wild [7, 22]: 45 | Plant response rating, Oat, Wild [7, 14]: 10 | Plant response rating, Oat, Wild [7, 23]: 0 | Plant response rating, Oat, Wild [7, 24]: 0 | Plant response rating, Oat, Wild [7, 25]: 0 | Plant response rating, Oat, Wild [7, 26]: 75 | Plant response rating, Oat, Wild [7, 27]: 75
